Assay [1] concerns the target T1, APE1 mutants F266A, F266C, F266A/W280A, D210N (Homo sapiens, UniProt P27695, F266A/W280A).
T1 construct: made in house
Briefly: Circular dichroism of APE1 mutant proteins with lucanthone. Conditions: 140 µM lucanthone, 14 µM protein, 37°C, 60 min. The method, then: (§1) APE1 and its mutant proteins (10 mg/ml), 50 µl (500 µg) (14 µM) in APE1 buffer (50 mM HEPES, pH 7.4, 150 mM KCl, 5 mM MgCl2), were mixed with lucanthone/hycanthone (1 mg/ml), 50 µl (50 µg), 140 µM and incubated at 37°C for 60 min and far UV-CD spectra were recorded at NSLS U11 beam line at BNL. Lucanthone and hycanthone were also scanned as drug controls. The scanning parameters used were a 0.001 cm path length quartz cell, scanning wavelengths from 260 to 170 nm, bandwidth of 0.5 nm, digital integration time of 1 s, time constant of 200 ms, step size of 1 nm, and sensitivity of 200 µV. The data were corrected with blank subtraction from APE1 buffer alone. The secondary structure for APE1 with or without lucanthone or hycanthone was analyzed using CDSSTR program DICHROWEB [38].
Background: Circular dichroism is the unequal absorption of left and right circularly polarised light.

Assay [2] deals with APE1 mutants F266A, F266C, F266A/W280A, D210N. The description is as above. Also noted: species or system human. Conditions: 140 µM lucanthone, 14 µM protein, 37°C, 60 min. The method, then:
as §1

T1 sequence (P27695 2-318 F266A/W280A): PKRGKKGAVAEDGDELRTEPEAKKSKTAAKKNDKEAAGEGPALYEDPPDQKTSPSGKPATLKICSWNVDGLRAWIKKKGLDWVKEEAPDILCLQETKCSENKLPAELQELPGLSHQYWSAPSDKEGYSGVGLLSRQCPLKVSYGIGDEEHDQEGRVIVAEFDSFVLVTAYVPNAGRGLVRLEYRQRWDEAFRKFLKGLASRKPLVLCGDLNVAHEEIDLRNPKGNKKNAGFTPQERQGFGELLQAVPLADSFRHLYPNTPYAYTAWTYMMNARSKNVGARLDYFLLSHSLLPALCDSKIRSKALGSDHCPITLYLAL

Regarding `CCN(CC)CCNc1ccc(C)c2sc3ccccc3c(=O)c12` [lucanthone, 1-[2-diethylaminoethylamino]-4-methylthioxanthen-9-one], in assay [1], the “Conformational change of double mutant F266A/W280A (CD)” value is recorded as “almost no conformational change”. For the same compound, the “Conformational change of wild type and D210N active site mutant APE1 (CD)” value in assay [2] was “able to induce conformational changes”.

These data come from PMC3174134, “Lucanthone and Its Derivative Hycanthone Inhibit Apurinic Endonuclease-1 (APE1) by Direct Protein Binding” (PLoS ONE, 2011).
